Assay results: patent publication US11339130B1 (Blade Therapeutics, Inc., priority 2016, dated 2022)

Legend:
[1] = tested on: Calpain activity in SH-SY5Y cells; assay: SH-SY5Y + AMC fluorescence assay (Suc-LLVY-AMC substrate); type: cell-based; conditions: Column E, read-out: SH-SY5Y + AMC IC50
[2] = tested on: Calpain activity in SH-SY5Y cells (SBDP-150); assay: SH-SY5Y Spectrin western blot assay (SBDP-150 breakdown product, A23187-induced); type: cell-based; conditions: Homo sapiens; Column D; SH-SY5Y cells, A23187-induced SBDP-150; read-out: SH-SY5Y Spectrin IC50
Human Calpain 2/NS1 = target: T1, Human Calpain 2/NS1 (Homo sapiens, UniProt P17655); assay: Calpain inhibition continuous fluorescence (FRET) assay, Human Calpain 2/NS1; type: biochemical; conditions: Column B; read-out: Human Calpain 2/NS1 IC50
T1 sequence (P17655 1-700): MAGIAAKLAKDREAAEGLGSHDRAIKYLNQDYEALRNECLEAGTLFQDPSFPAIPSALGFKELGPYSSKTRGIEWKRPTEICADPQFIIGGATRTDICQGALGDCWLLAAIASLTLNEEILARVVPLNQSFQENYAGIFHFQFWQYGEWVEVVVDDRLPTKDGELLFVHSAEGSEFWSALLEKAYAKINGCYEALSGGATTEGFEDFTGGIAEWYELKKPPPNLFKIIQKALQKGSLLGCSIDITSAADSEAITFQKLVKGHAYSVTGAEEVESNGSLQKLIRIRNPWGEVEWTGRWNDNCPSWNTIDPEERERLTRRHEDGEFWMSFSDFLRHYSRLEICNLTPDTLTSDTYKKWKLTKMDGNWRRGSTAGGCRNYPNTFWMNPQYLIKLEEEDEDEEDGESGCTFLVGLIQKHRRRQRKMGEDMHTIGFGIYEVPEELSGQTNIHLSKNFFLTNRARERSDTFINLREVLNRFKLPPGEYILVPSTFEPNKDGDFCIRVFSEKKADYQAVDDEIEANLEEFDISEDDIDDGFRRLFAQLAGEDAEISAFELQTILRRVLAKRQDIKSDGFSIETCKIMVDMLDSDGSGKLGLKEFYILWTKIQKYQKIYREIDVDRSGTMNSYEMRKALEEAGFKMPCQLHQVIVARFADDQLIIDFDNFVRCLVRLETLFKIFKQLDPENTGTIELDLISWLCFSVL
T1 sequence (P04632 1-268 partner): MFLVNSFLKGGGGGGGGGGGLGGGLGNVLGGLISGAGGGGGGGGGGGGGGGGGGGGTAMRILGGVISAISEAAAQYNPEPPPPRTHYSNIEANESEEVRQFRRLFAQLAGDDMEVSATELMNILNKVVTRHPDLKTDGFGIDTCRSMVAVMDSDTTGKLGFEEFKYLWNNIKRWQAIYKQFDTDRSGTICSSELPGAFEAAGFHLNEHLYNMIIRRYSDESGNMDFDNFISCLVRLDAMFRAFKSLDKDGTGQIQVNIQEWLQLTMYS
In short: (§1)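 Calpain activity is measured kinetically with a quenched FRET peptide in 50 mM Tris pH 7.5, 100 mM NaCl, 1 mM DTT, with CaCl2 triggering activation. Rates over 1-5 min are plotted against log inhibitor to obtain IC50 by 4-parameter logistic fitting.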

Human Calpain 9/NS1 = target: T2, Human Calpain 9/NS1 (Homo sapiens, UniProt O14815); assay: Calpain inhibition continuous fluorescence (FRET) assay, Human Calpain 9/NS1; type: biochemical; conditions: Column C; read-out: Human Calpain 9/NS1 IC50
T2 sequence (O14815 1-690): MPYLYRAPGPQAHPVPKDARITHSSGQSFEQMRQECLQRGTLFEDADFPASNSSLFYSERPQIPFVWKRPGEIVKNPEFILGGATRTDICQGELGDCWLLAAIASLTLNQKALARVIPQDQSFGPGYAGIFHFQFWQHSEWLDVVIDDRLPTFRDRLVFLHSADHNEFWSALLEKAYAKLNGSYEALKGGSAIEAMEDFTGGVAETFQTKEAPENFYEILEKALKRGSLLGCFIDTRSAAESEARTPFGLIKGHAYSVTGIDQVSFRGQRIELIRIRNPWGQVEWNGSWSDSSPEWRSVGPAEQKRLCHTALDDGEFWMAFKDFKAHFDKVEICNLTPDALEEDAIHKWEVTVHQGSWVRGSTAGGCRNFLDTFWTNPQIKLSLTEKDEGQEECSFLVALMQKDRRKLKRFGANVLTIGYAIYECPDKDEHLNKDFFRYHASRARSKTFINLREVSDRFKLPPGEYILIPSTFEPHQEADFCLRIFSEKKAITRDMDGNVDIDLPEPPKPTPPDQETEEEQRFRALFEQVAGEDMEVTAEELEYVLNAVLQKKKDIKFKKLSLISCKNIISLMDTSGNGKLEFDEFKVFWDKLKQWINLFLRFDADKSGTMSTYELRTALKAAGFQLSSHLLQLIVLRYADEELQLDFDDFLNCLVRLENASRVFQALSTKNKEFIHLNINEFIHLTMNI
T2 sequence (P04632 1-268 partner): T1 sequence (P04632 1-268 partner)
In short: as §1

Human Calpain 1/NS1 = target: T3, Human Calpain 1/NS1 (Homo sapiens, UniProt P07384); assay: Calpain inhibition continuous fluorescence (FRET) assay, Human Calpain 1/NS1; type: biochemical; conditions: Column A; read-out: Human Calpain 1/NS1 IC50
T3 sequence (P07384 1-714): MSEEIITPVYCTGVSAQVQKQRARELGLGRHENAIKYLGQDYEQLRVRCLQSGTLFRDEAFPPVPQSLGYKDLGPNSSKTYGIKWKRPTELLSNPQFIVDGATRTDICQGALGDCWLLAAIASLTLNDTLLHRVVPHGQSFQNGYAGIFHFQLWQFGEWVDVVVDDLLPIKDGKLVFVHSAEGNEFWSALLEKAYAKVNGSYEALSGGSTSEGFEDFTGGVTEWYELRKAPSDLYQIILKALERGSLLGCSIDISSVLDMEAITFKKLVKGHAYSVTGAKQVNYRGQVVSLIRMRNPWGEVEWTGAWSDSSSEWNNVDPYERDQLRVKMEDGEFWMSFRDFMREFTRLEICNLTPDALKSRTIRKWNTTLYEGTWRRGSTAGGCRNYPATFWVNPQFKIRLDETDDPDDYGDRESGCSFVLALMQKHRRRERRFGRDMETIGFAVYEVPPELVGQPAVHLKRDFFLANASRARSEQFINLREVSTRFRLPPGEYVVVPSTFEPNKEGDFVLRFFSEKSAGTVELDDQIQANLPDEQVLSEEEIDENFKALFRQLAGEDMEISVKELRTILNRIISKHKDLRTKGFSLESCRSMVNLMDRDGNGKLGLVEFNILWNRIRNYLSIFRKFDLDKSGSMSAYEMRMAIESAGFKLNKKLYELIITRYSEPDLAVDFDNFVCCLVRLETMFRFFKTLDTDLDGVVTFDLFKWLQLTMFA
T3 sequence (P04632 1-268 partner): T1 sequence (P04632 1-268 partner)
In short: as §1

Structure (SMILES) | IC50 [1] [µM] | IC50 [2] [µM] | IC50 (Human Calpain 2/NS1) [µM] | IC50 (Human Calpain 9/NS1) [µM] | IC50 (Human Calpain 1/NS1) [µM]
Cc1cc(C(=O)N[C@@H](Cc2ccccc2)C(=O)C(N)=O)n(-c2ccccn2)n1 [Compound 12, (S)—N-(4-amino-3,4-dioxo-1-phenylbutan-2-yl)-3-methyl-1-(pyridin-2-yl)-1H-pyrazole-5-carboxamide] | < 10 | 10 to 25 | < 3 | < 3 | < 3
Cc1cc(C(=O)N[C@@H](Cc2ccccc2)C(=O)C(N)=O)n(-c2ccc3ccccc3n2)n1 [Compound 15, (S)—N-(4-amino-3,4-dioxo-1-phenylbutan-2-yl)-3-methyl-1-(quinolin-2-yl)-1H-pyrazole-5-carboxamide] | 10 to 25 | < 10 | < 3 | < 3 | < 3
Cc1cc(C(=O)N[C@@H](Cc2ccccc2)C(=O)C(N)=O)n(-c2cccc(-c3ccccc3)c2)n1 [Compound 16, (S)-1-([1,1′-biphenyl]-3-yl)-N-(4-amino-3,4-dioxo-1-phenylbutan-2-yl)-3-methyl-1H-pyrazole-5-carboxamide] | 10 to 25 | 10 to 25 | < 3 | < 3 | < 3
Cc1cc(C(=O)N[C@@H](Cc2ccccc2)C(=O)C(N)=O)n(-c2ccc(S(C)(=O)=O)cc2)n1 [Compound 17, (S)—N-(4-amino-3,4-dioxo-1-phenylbutan-2-yl)-3-methyl-1-(4-(methylsulfonyl)phenyl)-1H-pyrazole-5-carboxamide] | > 25 | < 10 | < 3 | < 3 | < 3
Cc1cc(C(=O)N[C@@H](Cc2ccccc2)C(=O)C(N)=O)n(-c2ccc(OC(F)(F)F)cc2)n1 [Compound 19, (S)—N-(4-amino-3,4-dioxo-1-phenylbutan-2-yl)-3-methyl-1-(4-(trifluoromethoxy)phenyl)-1H-pyrazole-5-carboxamide] | > 25 | 10 to 25 | < 3 | < 3 | < 3
Cc1noc(-c2ccccc2)c1C(=O)N[C@@H](Cc1ccccc1)C(=O)C(N)=O [Compound 23, (S)—N-(4-amino-3,4-dioxo-1-phenylbutan-2-yl)-3-methyl-5-phenylisoxazole-4-carboxamide] | > 25 | 10 to 25 | < 3 | < 3 | < 3
NC(=O)C(=O)[C@H](Cc1ccccc1)NC(=O)c1cncn1-c1ccccn1 [Compound 24, (S)—N-(4-amino-3,4-dioxo-1-phenylbutan-2-yl)-1-(pyridin-2-yl)-1H-imidazole-5-carboxamide] | > 25 | > 25 | < 3 | < 3 | < 3
Cc1nc(-c2ccccc2)c(C(=O)N[C@@H](Cc2ccccc2)C(=O)C(N)=O)o1 [Compound 26, (S)—N-(4-amino-3,4-dioxo-1-phenylbutan-2-yl)-2-methyl-4-phenyloxazole-5-carboxamide] | < 10 | < 10 | < 3 | < 3 | < 3
Cc1onc(-c2ccccc2)c1C(=O)N[C@@H](Cc1ccccc1)C(=O)C(N)=O [Compound 27, (S)—N-(4-amino-3,4-dioxo-1-phenylbutan-2-yl)-5-methyl-3-phenylisoxazole-4-carboxamide] | > 25 | 10 to 25 | < 3 | < 3 | < 3
NC(=O)C(=O)[C@H](Cc1ccccc1)NC(=O)c1nnsc1-c1ccccc1 [Compound 28, (S)—N-(4-amino-3,4-dioxo-1-phenylbutan-2-yl)-5-phenyl-1,2,3-thiadiazole-4-carboxamide] | < 10 | < 10 | < 3 | < 3 | < 3
NC(=O)C(=O)[C@H](Cc1ccccc1)NC(=O)c1c[nH]nc1-c1ccccc1 [Compound 30, (S)—N-(4-amino-3,4-dioxo-1-phenylbutan-2-yl)-3-phenyl-1H-pyrazole-4-carboxamide] | 10 to 25 | < 10 | < 3 | < 3 | < 3
CCc1cc(C(=O)N[C@@H](Cc2ccccc2)C(=O)C(N)=O)n(-c2ccccc2)n1 [Compound 33, (S)—N-(4-amino-3,4-dioxo-1-phenylbutan-2-yl)-3-ethyl-1-phenyl-1H-pyrazole-5-carboxamide] | < 10 | < 10 | < 3 | < 3 | < 3
Cn1ncc(C(=O)N[C@@H](Cc2ccccc2)C(=O)C(N)=O)c1-c1ccccc1 [Compound 45, (S)—N-(4-amino-3,4-dioxo-1-phenylbutan-2-yl)-1-methyl-5-phenyl-1H-pyrazole-4-carboxamide] | 10 to 25 | > 25 | < 3 | < 3 | < 3
Cc1cc(C(=O)N[C@@H](Cc2ccccc2)C(=O)C(N)=O)n(-c2ncccn2)n1 [Compound 49, (S)—N-(4-amino-3,4-dioxo-1-phenylbutan-2-yl)-3-methyl-1-(pyrimidin-2-yl)-1H-pyrazole-5-carboxamide] | < 10 | < 10 | < 3 | < 3 | < 3
NC(=O)C(=O)[C@H](Cc1ccccc1)NC(=O)c1cncn1-c1nc2ccccc2s1 [Compound 50, (S)—N-(4-amino-3,4-dioxo-1-phenylbutan-2-yl)-1-(benzo[d]thiazol-2-yl)-1H-imidazole-5-carboxamide] | > 25 | < 10 | < 3 | < 3 | < 3
